# Key:
# lung cancer cells = type: in vivo, mice; conditions: after completion of the experiment
compound,measurement,setting,value
O=C(O)c1cc(O)c2c(c1)C(=O)c1cccc(O)c1C2=O [rhein],overall inhibition ratio (lung metastasis),lung cancer cells,15.8%
same,toxic damage to the tumor-bearing mice,"different doses, under the experimental conditions",did not cause toxic damage
same,influence on the body temperature of tumor-bearing mice,"mouse, in vivo",some fluctuations

# Source: US20220296659A1, “PHARMACEUTICAL COMPOSITION FOR TREATMENT OF TUMOR OR CANCER, AND APPLICATION THEREOF” (FANTASIA BIOPHARMA (ZHEJIANG) CO. LTD, priority 2019, published 2022)
